For 4 molecules, EC50, AC50 and IC50 results are on record in ChEMBL document CHEMBL1201862, “PubChem BioAssay data set” (2004).

Active and inactive are the calls of the source. A value given as a limit tells only on which side of the number the result lay.

One test has as its target T1, Protein RecA (Mycobacterium tuberculosis, UniProt P9WHJ3).
T1 sequence (P9WHJ3 whole entry): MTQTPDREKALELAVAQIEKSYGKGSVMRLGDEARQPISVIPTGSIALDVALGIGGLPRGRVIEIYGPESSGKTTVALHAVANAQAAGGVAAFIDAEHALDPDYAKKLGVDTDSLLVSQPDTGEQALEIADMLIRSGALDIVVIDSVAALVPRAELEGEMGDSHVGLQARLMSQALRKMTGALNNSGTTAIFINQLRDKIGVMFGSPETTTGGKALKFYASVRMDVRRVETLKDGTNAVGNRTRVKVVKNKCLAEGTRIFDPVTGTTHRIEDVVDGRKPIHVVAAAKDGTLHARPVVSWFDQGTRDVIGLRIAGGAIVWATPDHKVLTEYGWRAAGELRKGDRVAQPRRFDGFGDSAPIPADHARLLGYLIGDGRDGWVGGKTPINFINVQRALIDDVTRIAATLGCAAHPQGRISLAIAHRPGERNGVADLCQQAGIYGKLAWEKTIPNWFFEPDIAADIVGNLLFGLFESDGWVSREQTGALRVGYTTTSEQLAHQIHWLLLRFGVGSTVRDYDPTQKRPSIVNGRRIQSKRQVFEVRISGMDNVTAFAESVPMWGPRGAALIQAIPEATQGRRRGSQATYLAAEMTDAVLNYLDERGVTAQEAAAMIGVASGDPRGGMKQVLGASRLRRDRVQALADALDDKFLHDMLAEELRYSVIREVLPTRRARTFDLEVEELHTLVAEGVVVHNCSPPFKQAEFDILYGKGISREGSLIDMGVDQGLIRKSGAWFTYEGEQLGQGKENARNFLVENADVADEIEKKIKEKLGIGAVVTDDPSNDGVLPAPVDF
Description: Fluorescence Cell-Free Homogeneous Dose Retest to Identify Inhibitors of RecA-Intein Splicing Activity. [Related pubchem assays (depositor defined):AID2097, AID2223, AID489010, AID492950]. The test is classed as functional.

Test [1] addresses T2, Replicative DNA helicase DnaB (Mycobacterium tuberculosis, UniProt P9WMR3).
T2 sequence (P9WMR3 whole entry): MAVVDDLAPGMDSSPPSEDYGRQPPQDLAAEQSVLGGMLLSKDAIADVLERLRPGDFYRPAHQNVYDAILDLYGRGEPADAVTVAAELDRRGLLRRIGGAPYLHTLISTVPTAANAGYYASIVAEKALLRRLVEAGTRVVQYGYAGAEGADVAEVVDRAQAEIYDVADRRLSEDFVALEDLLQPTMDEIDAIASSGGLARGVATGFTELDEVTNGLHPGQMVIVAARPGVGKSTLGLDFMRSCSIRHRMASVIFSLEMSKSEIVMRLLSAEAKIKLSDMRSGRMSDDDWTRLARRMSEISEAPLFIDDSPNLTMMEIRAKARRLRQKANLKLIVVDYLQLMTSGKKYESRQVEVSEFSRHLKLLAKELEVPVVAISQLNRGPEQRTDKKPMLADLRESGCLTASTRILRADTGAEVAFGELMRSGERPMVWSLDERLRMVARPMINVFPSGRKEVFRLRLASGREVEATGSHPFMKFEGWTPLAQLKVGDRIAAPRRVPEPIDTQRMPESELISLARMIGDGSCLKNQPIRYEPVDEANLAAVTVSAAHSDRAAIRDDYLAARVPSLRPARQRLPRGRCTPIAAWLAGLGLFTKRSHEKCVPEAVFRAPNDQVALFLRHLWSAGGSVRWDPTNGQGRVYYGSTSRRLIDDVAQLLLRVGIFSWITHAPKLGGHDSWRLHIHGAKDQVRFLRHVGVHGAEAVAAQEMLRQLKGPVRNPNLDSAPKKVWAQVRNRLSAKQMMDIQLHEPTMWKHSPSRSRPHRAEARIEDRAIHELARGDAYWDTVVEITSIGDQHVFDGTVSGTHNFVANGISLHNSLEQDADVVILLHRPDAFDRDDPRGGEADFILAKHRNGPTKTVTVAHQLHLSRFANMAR
Description: DnaB intein splicing inhibitors, dose response, biochemical, cell-free fluorescence (AID 449749). The test is classed as functional.

The target in test [2] is T3, Ubiquitin-conjugating enzyme E2 N (Homo sapiens, UniProt P61088).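 Further: Dose-response confirmation in a TR-FRET assay detecting UBC13-driven polyubiquitin chain formation, inhibition measured.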
T3 sequence (P61088 whole entry): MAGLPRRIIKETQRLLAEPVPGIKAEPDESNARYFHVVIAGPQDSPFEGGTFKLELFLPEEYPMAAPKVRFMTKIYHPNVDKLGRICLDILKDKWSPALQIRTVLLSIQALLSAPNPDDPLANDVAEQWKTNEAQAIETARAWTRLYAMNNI
The test is classed as functional.

Test [3] concerns the target T4, DNA repair protein RAD52 homolog (Homo sapiens, UniProt P43351).
T4 sequence (P43351 whole entry): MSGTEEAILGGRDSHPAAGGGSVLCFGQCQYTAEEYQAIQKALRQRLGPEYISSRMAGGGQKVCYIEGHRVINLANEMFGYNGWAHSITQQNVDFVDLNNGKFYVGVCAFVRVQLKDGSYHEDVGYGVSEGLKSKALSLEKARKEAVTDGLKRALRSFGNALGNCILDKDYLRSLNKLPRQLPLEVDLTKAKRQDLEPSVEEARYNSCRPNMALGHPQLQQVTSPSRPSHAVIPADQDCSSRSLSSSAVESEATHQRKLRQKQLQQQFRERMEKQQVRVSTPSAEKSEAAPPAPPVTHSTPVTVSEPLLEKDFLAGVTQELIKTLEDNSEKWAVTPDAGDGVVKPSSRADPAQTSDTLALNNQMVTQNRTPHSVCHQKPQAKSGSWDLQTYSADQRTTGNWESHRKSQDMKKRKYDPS
The class given is functional, biochemical.

Test [4] can be described thus: Counterscreen for AddAB inhibitors: absorbance-based bacterial cell-based high throughput dose response assay for inhibitors of bacterial viability. [Related pubchem assays (depositor defined):AID435030, AID449728, AID449731, AID488942, AID488955, AID488956]. The test is classed as functional. On the technique in general: Counterscreens check selectivity or assay interference.

The next test concerns the target T5, Bcl-2-like protein 10 (Homo sapiens, UniProt Q9HD36).
T5 sequence (Q9HD36 whole entry): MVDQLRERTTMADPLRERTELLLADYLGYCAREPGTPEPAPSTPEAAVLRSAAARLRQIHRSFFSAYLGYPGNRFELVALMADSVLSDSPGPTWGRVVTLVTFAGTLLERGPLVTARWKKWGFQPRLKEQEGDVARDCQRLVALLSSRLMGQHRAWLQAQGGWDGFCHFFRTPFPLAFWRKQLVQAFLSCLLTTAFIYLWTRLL
Nature of the test: Bcl-B/TR3 peptide binding disruption – biochemical, fluorescence polarization, FITC-TR3 peptide, selectivity assay for Bfl-1 inhibitor project, primary screen (AID 748). On the technique in general: Fluorescence polarisation rises when a labelled molecule tumbles more slowly, as on binding a larger partner.

As to `CC(C)[n+]1ccn(C2=C([N-]S(=O)(=O)c3ccccc3)C(=O)c3ccccc3C2=O)c1`, the concentration giving a half-maximal response (EC50) (commonly the concentration at which the effect is half-maximal) on Protein RecA was 12 µM (active). For the same molecule, the AC50 (usually the concentration at which the activity in the assay is half-maximal) in test [1] was 12.3 µM (active).
On to `CCCCCCCCCCOC(=O)Cn1c(COc2ccccc2)[n+](C)c2ccccc21`, for which the IC50 – broadly, the concentration needed to halve the response being measured – in test [2] is > 20 µM (inactive). At Protein RecA, the EC50 is 9.4 µM (active). Moreover, the AC50 in test [1] was 3.6 µM (active); in test [3] it was 12.5 µM (active).
Turning to `COc1cc(-c2nnc(SCc3cc(=O)oc4cc(O)c(O)cc34)o2)cc(OC)c1OC`, the IC50 in test [4] was > 119 µM (inactive); on Bcl-2-like protein 10, 0.493 µM (active).
Turning to `CCOC(=O)c1c(-c2ccc(-c3ccccc3)cc2)csc1NC(=O)CNCCN(C)C`, the IC50 in test [2] was 11.4 µM (active). The AC50 in test [3] is 5.29 µM (active).
